PMC3438169 (PLoS ONE, 2012)
*1 amine or outer side, *2 acyl side, *3 side chain or, on linkers, in order; H or OH if unused. Where a SMILES comes first, the peptide text is derived from it. [ ]: non-standard residue; d: D form. dAla(ψthiazole) = C[C@@H](N[*:1])c1nc(C(=O)[*:2])cs1; Trp(4-OMe) = COc1cccc2[nH]cc(C[C@H](N)C(=O)O)c12; dAbu = CC[C@@H](N)C(=O)O; Dha = C=C(N)C(=O)O; Sar = CNCC(=O)O

Assays:
P. aeruginosa = assay: Resistant mutant selection, P. aeruginosa; type: cell-based; settings: P. aeruginosa K767; solid medium containing 128 µg/ml argyrin B
Description: Resistance frequencies were calculated as the number of CFU (mutants) on drug containing plates divided by the number of CFU plated. Whole genome sequencing was done as described previously. The fusA1 gene from P. aeruginosa was generated for sequencing in two parts, using primer pairs PAEFF1/PAEFR1: […]/[…] and EFF2/EFR1: […]/[…]. The fusA1 gene from B. multivorans was generated as a single band using BCEFGF1/BCEFGR1: […]/[…]. Nucleotide sequencing of the products was done by Agencourt (Beverly MA).

[1] = system: Cox4-GFP labeled mitochondria; assay: Microscopy of mitochondrial morphology (Cox4-GFP); type: cell-based, S. cerevisiae; settings: 3× IC30 (10 µM on YPEG), 30 minutes, ethanol/glycerol
Description: BY4741 cells containing a genomic COX4-GFP fusion where grown to mid-log phase in glucose and ethanol/glycerol media and incubated with the corresponding concentrations of compound for 30 minutes. Aliquots where spotted on microscopy slides and directly imaged on a Zeiss Axiovert 200Mot microscope equipped with a AxioCam MRm digital camera using the Plan-Neofluar 100×, 1.3 oil PH3 objective (Carl Zeiss, Feldbach, Switzerland). A z-stack consisting of 3 images spaced by […] in the filterset 38 (eGFP) channel and a phase-contrast image where acquired. False colors where applied to the GFP images (green) and phase contrast (blue) and the images merged into one plane and scaled to 8-bit. Representative, individual cells where selected and assembled into a panel using Adobe Photoshop (Adobe Systems Inc.).

RKO = assay: Cell viability (CellTiter-Glo), RKO with siRNA or mEF-G1 variants; type: cell-based, human
Description: HCT116 (ATCC, CCL-247) and RKO (ATCC, CRL-2577) cell lines were maintained in a humidified incubator at 37°C and 5% CO2 in RPMI1640 supplemented with 10% FBS. Cell viability was determined using the CellTiter-Glo luminescent cell viability assay (Promega). […] Subsequently, 40 µl of CellTiter-Glo reagent was added to each well and luminescence recorded on an Envision plate reader (Perkin Elmer). Each treatment condition was tested in triplicate and compared to an equivalent volume of DMSO as control.
Non-targeting (NT) or GFM1 siRNA pools were obtained from Dharmacon (ON-TARGETplus SMART pool D-001810 and L-013685). HCT116 and RKO cells were reverse transfected in 6-well plates using RNAiMax (Invitrogen) and 25 nM siRNA. After 2 days, cells were harvested by trypsinization and re-plated into 6-well plates for western blot analysis or into 384-well plates for compound treatments and cell viability determination using CellTiter-Glo as described above.
The human GFM1 cDNA (encoding mEF-G1, Table 2) was mutagenized in pENTR221 (Invitrogen) using QuikChangeII XL site-directed mutagenesis (Stratagene). The following point mutations were introduced: C1355T (encoding S452L), C1481T (encoding S494F) and T2078A (encoding L693Q). The GFM1 cDNAs were then subcloned into the mammalian expression vector pLenti4/TO/V5 using LR clonase II (Invitrogen) and sequence-verified. The pLenti4 constructs were then co-transfected with a lentiviral plasmid mix (encoding LP1, LP2 and VSV-G) into 293T cells, and viral particles were harvested after 72 h and used to infect HCT116 and RKO cells. Stable cell lines were generated by selection with 400 µg/ml Zeocin and plated into 6-well plates for western blot analysis or into 384-well plates for compound treatments and cell viability determination using CellTiter-Glo as described above.

`C=C1NC(=O)CN(C)C(=O)CNC(=O)[C@H](Cc2c[nH]c3cccc(OC)c23)NC(=O)[C@H](Cc2c[nH]c3ccccc23)NC(=O)c2csc(n2)[C@@H](C)NC(=O)[C@@H](CC)NC1=O` [argyrin B] (cyclo([dAbu][dAla(ψthiazole)]W[Trp(4-OMe)]G[Sar][Dha])) was tested, and the “frequency of mutants with decreased susceptibility” value (P. aeruginosa) was “circa 5×10^−8”, the “Mitochondrial morphology (in words)” value [1] was “mitochondrial morphology defects (fragmentation)” and the “Lowering of IC50 by knock down of mEF-G1” value (RKO; GFM1 siRNA, 7 days, CellTiter Glo) was about 3.3 fold. The “Sensitivity under hypoxic culture conditions (in words)” value (RKO; hypoxia, data not shown) was “became less sensitive”, the “Decrease of susceptibility on expression of mEF-G1 L693Q” value (RKO; mEF-G1 L693Q, 7 days) was 7 fold and the “Sensitivity change on expression of mEF-G1 S452L and S494F (in words)” value (RKO; mEF-G1 S452L and S494F, 7 days) was “only marginal effects”. For the same compound, the “Sensitivity change on overexpression of mEF-G1 WT (in words)” value (RKO; mEF-G1 WT stable overexpression, 7 days) was “did not alter the argyrin B-sensitivity”.
